In patent US20240384311A1, “POLYHYDROXYALKANOATES AND METHODS OF MAKING THEREOF” (The Board of Trustees of the Leland Stanford Junior …, priority 2021, published 2024):
Read-outs that look alike come from different tables or passages of the source.

Key:
Format in all cases: cell-based
[1] = system: Cupriavidus necator H16 ΔphaC1 hadA-phaC1437; settings: shake-flask, 30° C., determined from 20 mM down in steps of 5 mM until acceptable growth
Description: (§1) Liquid cultures under heterotrophic conditions were conducted in 500 mL vented, baffled shake-flasks (WHEATON® Erlenmeyer Flasks with DuoCap®. DWK Life Sciences), incubated with shaking at 180 rpm on an innova 2300 platform shaker (New Brunswick Scientific) at 30° C. For feeding experiments, precultures of the engineered C. necator strains were inoculated in liquid RB+kan (50 mL) from solid RB+kan and grown over-night. In the morning the medium was exchanged for MSM+kan, diluting the culture 1:2 (in 100 mL). In the afternoon the seed-culture was washed with MSM and again diluted 1:2 (in 200 mL) with MSM+kan+polymer-precursor and induced with arabinose (1 g/L, unless indicated otherwise) in the evening. OD was monitored accompanied by collection of supernatant samples.
(§2) In a PHA-negative knock-out mutant (ΔphaC1) of the type-strain ‘H16’, pct540 & phaC1437 and hadA & phaC1437 were expressed, respectively.
(§3) Toxicity limits of the respective hydroxy carbonic acids were determined outgoing from 20 mM down in steps of 5 mM until acceptable growth was obtained in shake-flask experiments at 30° C.
(§4) Cultivations conducted on minimal salt medium with 30 g/L fructose as carbon-source and 2 g/L ammonium chloride as nitrogen-source (limiting). Cultures were inoculated at an OD600 of ≈0.5-1.

[2] = system: Cupriavidus necator H16 wild-type; assay: Shake-flask cultivation with externally supplied hydroxy carbonic acids (toxicity limit, growth), wild-type strain; settings: for final biomass: H16 wild-type cultivated with the hydroxyalkanoate at its listed concentration, 2 g/L ammonium chloride
Description: as §1, §2, §3, §4

[3] = system: Cupriavidus necator H16 ΔphaC1 pct540-phaC1437; settings: for Concentration (maximum non-toxic concentration of hydroxyalkanoate): H16 ΔphaC1 pct540-phaC1437, shake-flask, 30° C., determined from 20 mM down in steps of 5 mM until acceptable growth; for final biomass: H16 ΔphaC1 pct540-phaC1437 cultivated with the hydroxyalkanoate at its listed concentration, 30 g/L fructose, 2 g/L ammonium chloride
Description: as §1, §2, §3, §4

[4] = H16 wild-type, shake-flask, 30° C., determined from 20 mM down in steps of 5 mM until acceptable growth, MSM, 30 g/L fructose

| Structure (SMILES) | Concentration (maximum non-toxic concentration of hydroxyalkanoate) [1] | final biomass ([2]; 30 g/L fructose) | Concentration (maximum non-toxic concentration of hydroxyalkanoate) [2, 4] | Concentration (maximum non-toxic concentration of hydroxyalkanoate) [3] | final biomass [3] | Concentration (maximum non-toxic concentration of hydroxyalkanoate) [2] |
| --- | --- | --- | --- | --- | --- | --- |
| O=C(O)C(O)CCc1ccccc1 (centres unmarked) [2-hydroxy-4-phenylbutanoic acid] | 15000 µM | – | – | – | – | – |
| O=C(O)CCO [3-hydroxypropanoic acid] | 20000 µM | 5.7 g/L | 20000 µM | 20000 µM | 1.6 g/L | – |
| O=C(O)CCCO [4-hydroxybutanoic acid] | 20000 µM | 4.1 g/L | 20000 µM | 20000 µM | 1.9 g/L | – |
| O=C(O)CCCCCO [6-hydroxyhexanoic acid] | (<10 mM) | 3.5 g/L | (<10 mM) | (<10 mM) | 1.5 g/L | – |
| O=C(O)/C=C/c1ccc(O)c(O)c1 [caffeic acid] | 5000 µM | – | – | – | – | – |
| O=C(O)CO [glycolic acid] | – | 6.8 g/L | – | – | 1.4 g/L | – |
| CC(O)C(=O)O (centres unmarked) [lactic acid] | – | 18.2 g/L | – | – | 1.9 g/L | 20000 µM |
| O=C(O)C(O)c1ccccc1 (centres unmarked) [mandelic acid] | 5000 µM | – | – | – | – | – |
| O=C(O)/C=C/c1ccc(O)cc1 [para-coumaric acid] | 5000 µM | – | – | – | – | – |
| O=C(O)C(O)Cc1ccccc1 (centres unmarked) [phenyllactic acid] | 10000 µM | – | – | – | – | – |
| O=C(O)CCc1ccc(O)cc1 [phloretic acid] | 5000 µM | – | – | – | – | – |
